Assays:
[1] = cited from earlier work
[2] = test system: GluI and GluII in Jurkat (T lymphocyte) cells; experiment: Free oligosaccharide (FOS) assay in Jurkat cells; assay type: cell-based, human; settings: 48 h, 50 µm
Description: (§1) 5 Cell and Virus Culture and Assays
(§2) 5.1 Culture of Cell Lines
(§3) The human hepatoma cell line Huh7.5 (Apath, LLC) was cultured in Dulbecco’s modiﬁed Eagle medium (DMEM) with Glutamax (Gibco) supplemented with 100 µg mL−1 strepto-mycin (Sigma), 100 U mL−1 penicillin (Sigma), 100 µm MEM non-essential amino acids (Gibco) and 10% (volume/volume, v/v) heat-inactivated (56 ◦C, 30 min) fetal calf serum (FCS, Seralab). The human monocytic cell line HL60 (ATCC), human T lymphocyte cell line Jurkat (ATCC), and human B lymphocyte cell line Raji (ATCC) were each maintained in RPMI 1640 media with Glutamax (Gibco) supplemented with 100 µg mL−1 streptomycin, 100 U mL−1 penicillin and 10% (v/v) FCS. […]
(§4) Cell viability was measured using the CellTiter 96 R© AQueous One Solution Cell Prolifera-tion MTA (3-(4,5-dimethylthiazol-2-yl)-5-(3-carboxymethoxyphenyl)-2-(4-sulfophenyl)-2H - […]
(§5) After a further one to two hour incubation, the absorbance at 490 nm was measured on a Molecular Devices SpectraMax M5 microplate reader. […]
(§6) Absorbances were averaged across replicates, and corrected for background by subtracting the value for media-only wells. Each drug treatment was then evaluated as a percentage of untreated cells. […]
(§7) FOS analysis was carried out as described previously. […] Before purifying the FOS, each sample was analyzed for protein content using the modiﬁed Bradford assay. […]

[3] = test system: GluI and GluII in Raji (B lymphocyte) cells; experiment: Free oligosaccharide (FOS) assay in Raji cells; assay type: cell-based, human; settings: 48 h, 50 µm
Description: as §1, §2, §3, §4, §5, §6, §7

Structure (SMILES) | plasma half-life [1] [h] | tissue in which compound is found in the highest amounts ([1]; renally excreted) | glucosylated free oligosaccharides (FOS) observed after treatment [2] | glucosylated free oligosaccharides (FOS) observed after treatment ([2]; listed as ToP-DNJ 4) | glucosylated free oligosaccharides (FOS) observed after treatment [3] | glucosylated free oligosaccharides (FOS) observed after treatment ([3]; listed as ToP-DNJ 4)
CCCCN1CC(O)C(O)C(O)C1CO [Compound 2, N-butyl-D-1-deoxynojirimycin, reference compound] | 5 | highest amounts in the kidneys and bladder | – | – | – | –
Cc1c(C)c2c(c(C)c1OCCCCCN1CC(O)C(O)C(O)C1CO)CCC(C)(CCCC(C)CCCC(C)CCCC(C)C)O2 (stereo not drawn) [Compound 4, 5′-tocopheroxypentyl-DNJ] | – | – | not in Jurkat | no glucosylated FOS were detected | nor Raji | no glucosylated FOS were detected

From PMC5824344 (ACS Chemical Biology, 2017)
